From paper PMC8282797, “Strictly regulated agonist-dependent activation of AMPA-R is the key characteristic of TAK-653 for robust synaptic responses and cognitive improvement” (Scientific Reports, 2021)

Experiments:
[1] = target: GluA2o LBD (Homo sapiens, UniProt P42262); assay: SPA binding of [3H]-AMPA to His-LBD
Text: We previously reported that structural interference at Ser750 in the channel-closed state of GluA2o LBD might be involved in the molecular mechanisms underlying the lower agonistic effect of AMPA-R potentiators with dihydropyridothiadiazine 2,2-dioxide derivatives and discovered TAK-137, 9-(4-phenoxyphenyl)-3,4-dihydropyrido[2,1-c][1,2,4]thiadiazine 2,2-dioxide (Fig. 1A)[16]. […] TAK-653 bound to the intradimer interface formed by the ligand binding core (Fig. 1B). […] Binding affinity of TAK-653 to the GluA2o LBD was measured by a scintillation proximity assay (SPA) using [^3H]-HBT1, a radio-labeled LBD-binding AMPA-R potentiator, and a His-tagged GluA2o LBD protein (His-LBD)[21]. […] Binding of [^3H]-TAK-653 to His-LBD was also measured by SPA.
The SPA assays were performed as previously described, with some modifications. First, 62.5 μg YSi (2–5 μm) copper his-tag SPA beads (PerkinElmer Inc., Waltham, MA) and 0.25 μg His-tagged GluA2o LBD protein (His-LBD) were incubated in 100 μL PBS containing 0.01% NP-40 and 100 μM glutamate for the [^3H]-HBT1/LBD binding assay, containing 0.01% NP-40 and the indicated amount of glutamate for the [^3H]-TAK-653/LBD binding assay or containing 0.001% Triton X-100 for the [^3H]-AMPA/LBD binding assay in 96-well Luminunc plates (Thermo Fisher Scientific Inc.) overnight at 4 °C. Subsequently, test compound and tritium-labeled ligand (40 nM [^3H]-HBT1, 20 nM [^3H]-TAK-653 or 20 nM [^3H]-AMPA) were added to each well. Specific binding was defined as total binding minus nonspecific binding, which was estimated in the presence of 0.25 μg of control protein (His-tagged macrophage MIF protein) instead of His-LBD or in the presence of 3 mM AMPA. Radioactivity derived from the bound radio ligand was measured using a microplate scintillation counter (TopCount NXT, PerkinElmer Inc.).

[2] = test system: BDNF and Gadd45b mRNA; assay: AMPA-induced BDNF and Gadd45b mRNA after 14 days of dosing; format: in vivo, mouse; conditions: pre-administration 0.3 mg/kg, p.o. for 14 days
Experimental: Male ICR mice at 7 weeks old were treated with orally administered vehicle or TAK-653. For the repeated dose study, TAK-653 (0.3 mg/kg, p.o.) or vehicle was administered for 14 days. AMPA at designated doses was intravenously (i.v.) administered 1 h after oral administration. Three hours after i.v. administration of AMPA, right hippocampi were isolated from the mice by euthanasia and acutely frozen on dry ice. Total RNA from mouse hippocampus was extracted with RNeasy 96 kit (Qiagen, Hilden, Germany). Reverse transcription of total RNA was performed using the High-capacity cDNA Archive kit (Life Technologies, Carlsbad, CA). Real-time quantitative PCR was carried out using an ABI PRISM 7900HT sequence detection system (Life Technologies) using PCR reagents (Nippon Gene Co. Limited, Toyama, Japan). Primers used for BDNF analyses were as follows: BDNF forward primer, 5’-[…]-3’; BDNF reverse primer, 5’-[…]-3’; BDNF TaqMan probe, 5’-FAM- […]-TAMRA-3’. Primers used for Gadd45b analyses were as follows: Gadd45b forward primer, 5’-[…]-3’; Gadd45b reverse primer, 5’-GCGCCAGCCTCTGCAT-3’; Gadd45b TaqMan probe, 5’'-FAM-[…]-MGB-3’. […] Concentrations of GAPDH mRNA were used for internal controls and relative BDNF or Gadd45b mRNA/GAPDH mRNA levels were calculated.

[3] = test system: rats; assay: 5-choice serial reaction time task (5CSRTT); format: in vivo, rat; conditions: 0.3 mg/kg, p.o.
Experimental: The experiment consists of two sessions, training and testing session. The training session was initiated with 7-week-old of male Long-Evans rats, and the testing session was conducted at 12-13 months old. Throughout the experimental period, food was restricted to 80-85% of their free-feeding body weight. The training and testing were conducted using four operant chambers enclosed in sound-attenuating boxes (Med Associates Inc., St Albans, VT). Each chamber contained a curved wall with five contiguous apertures. Food pellets were supplied automatically into a magazine located in the opposite wall of the five contiguous apertures in the chamber, and a photocell beam was used to detect head entries into the magazine. In the training session, a pellet was delivered into the magazine at the start of each session to facilitate initiation of the first trial. After a 5 s-intertrial interval (ITI), a light stimulus was presented in one of the five apertures followed by the 5 s-limited hold without light stimulus. […] Rats were required to nose-poke in the illuminated aperture. […] Incorrect responses (responses in non-illuminated apertures), omissions (failure to respond during the limited hold) and premature responses (responses occurring prior to the presentation of the stimulus) were punished by a 5 s-timeout periods with extinction of the house light and no delivery of food. Accuracy was calculated as the number of correct responses / (number of correct responses + number of incorrect responses) × 100. Each session lasted for 35 min or until 100 trials were completed. Rats were trained until they achieved criterion performance (>75% accuracy and <20 omissions) over 3 consecutive days. In the testing session, the duration of light stimuli on an aperture was set to 0.5 s with a variable ITI schedule (4, 5, 7, or 10 s). Equal numbers of each ITI were randomly presented over 100 trials. TAK-653 at 0.3 mg/kg or vehicle was orally administered 2 h prior to testing in a cross-over design. Data were indicated as the mean ± SEM of number of correct responses, omissions, and premature responses. For sub-population analyses, a median split of the population was undertaken based on their correct response scores under vehicle treatment to ensure no interaction with performance changes across the study (Robinson, 2012).

Chain of GluA2o LBD (P42262 with tags, fused parts or gaps): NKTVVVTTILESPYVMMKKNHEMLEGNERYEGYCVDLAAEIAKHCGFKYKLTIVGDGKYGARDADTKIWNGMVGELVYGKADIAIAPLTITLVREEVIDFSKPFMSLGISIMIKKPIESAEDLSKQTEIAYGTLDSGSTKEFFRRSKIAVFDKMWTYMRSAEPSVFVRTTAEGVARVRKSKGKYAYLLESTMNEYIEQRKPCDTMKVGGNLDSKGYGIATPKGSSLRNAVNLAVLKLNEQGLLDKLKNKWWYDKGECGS

## CC1=CN2CCS(=O)(=O)N=C2C(c2ccc(OC3CCCCC3)cc2)=N1 [TAK-653, 9-[4-(Cyclohexyloxy)phenyl]-7-methyl-3,4-dihydropyrazino[2,1-c][1,2,4]thiadiazine 2,2-dioxide]
[1]
  Inhibition of specific binding of [3H]-AMPA to His-LBD: did not inhibit
[1]; SPA, 20 nM [3H]-AMPA, read-out: EC50 of increase in [3H]-AMPA binding
  EC50: 1.5 ± 0.2 µM
[1]; SPA, 20 nM [3H]-AMPA, read-out: Emax of increase in [3H]-AMPA binding
  Emax: 19.9 ± 3.4%
[2]
  AMPA-induced BDNF and Gadd45b mRNA expression in hippocampus: did not affect
[3]
  Premature responses: did not affect
[3]; 2 h prior to the trial
  5CSRTT performance in the whole population: no significant improvement
[3]; median split
  Correct responses in the poor performing rats: significantly increased
  Omissions in the poor performing rats: decreased
